Measurements from the NIST ThermoML archive (doi:10.1007/s10765-009-0602-6).
Values joined by “and” are separate entries in the source; they are usually repeats but may differ in a detail not shown here. Equal values may be shown once.

Assay: xn = mol fraction of the nth substance listed
Settings: Liquid, Other PVT measurement, x1 = 0.2607

N [ammonia] + O
Settings	mass density
508.07 K	671.23 kg/m3
519.77 K	649.65 kg/m3
545.62 K	594.32 kg/m3
561.03 K	552.58 kg/m3
565.36 K	540.25 kg/m3
580.18 K	476.26 kg/m3
584.95 K	456.58 kg/m3
585.31 K	120.03 kg/m3
594.14 K	147.43 kg/m3
595.16 K	376.89 kg/m3
597.36 K	160.07 kg/m3
597.56 K	342.19 kg/m3
598.33 K	329 kg/m3
598.96 K	320.33 kg/m3
599.42 K	312.91 kg/m3
599.57 K	311.19 kg/m3
599.67 K	310.95 kg/m3
599.78 K	308.35 kg/m3
599.89 K	307.35 kg/m3
600.02 K	305.44 kg/m3
600.17 K	303.47 kg/m3
600.29 K	301.94 kg/m3
600.48 K	299.79 kg/m3
600.63 K	297.6 kg/m3
600.81 K	295.31 kg/m3
600.93 K	292.97 kg/m3
601.05 K	291.16 kg/m3
601.16 K	188.05 kg/m3
601.34 K	285.71 kg/m3
601.75 K	195.99 kg/m3
602.05 K	271.09 kg/m3
602.26 K	206 kg/m3
602.45 K	260.02 kg/m3
602.74 K	214.83 kg/m3
602.85 K	218.92 kg/m3
602.91 K	243.98 kg/m3
602.96 K	230.31 kg/m3 and 224.53 kg/m3
602.97 K	227.54 kg/m3
